From US20100190735A1, “Mouthwash and Method of Using Same for the Treatment of Mucositis or Stomatitis” (priority 2006, published 2010)
Counter-ions that a name gives are not always drawn. Like-named read-outs stand apart in the source and are kept apart here.

What was measured:
[1] = in H2O, cited from earlier work
[2] = Storage stability of mouth rinse formulation B8: potency of the actives by HPLC; format: physicochemical
Description: (§1) Quantification of the respective ingredients was done using high performance liquid chromatography (HPLC). A difference in calculated quantity of less than 5% from the intial formulation (i.e. time=0) amount was considered a “pass”, that is, indicative of minimal degradation. The relative standard deviation for the HPLC calculations was 3%.

[3] = Storage stability of formulation B8: preservative assay by HPLC; format: physicochemical
Description: as §1

[4] = formulation B8, 2 months at 40° C.
[5] = formulation B8, 2 months at 40° C., 90 to 110% of label claim, less than 5% change
[6] = formulation B8, 2 months at room temperature
[7] = formulation B8, 2 months at room temperature, 90 to 110% of label claim, less than 5% change
[8] = formulation B8, 3 months at 40° C.
[9] = formulation B8, 3 months at 40° C., 90 to 110% of label claim, less than 5% change
[10] = formulation B8, 3 months at room temperature
[11] = formulation B8, 3 months at room temperature, 90 to 110% of label claim, less than 5% change
[12] = formulation B8, 4 months at 40° C.
[13] = formulation B8, 4 months at 40° C., 90 to 110% of label claim, less than 5% change
[14] = formulation B8, 4 months at room temperature, 90 to 110% of label claim, less than 5% change
[15] = formulation B8, 12 months at fridge 4° C.
[16] = formulation B8, 12 months at fridge 4° C., 90 to 110% of label claim, less than 5% change
[17] = formulation B8, 12 months at room temperature
[18] = formulation B8, 12 months at room temperature, 90 to 110% of label claim, less than 5% change
[19] = formulation B8, time = 0, limits 90 to 110% of label claim

Compound | Preservative assay [3, 4] | Preservative assay [3, 6] | Solubility (Notes) ([1]; in words) | Potency (of label claim) [2, 4] | Potency Pass/fail [2, 5] | Potency (of label claim) [2, 6] | Potency Pass/fail [2, 7] | Potency (of label claim) [2, 8] | Potency Pass/fail [2, 9] | Potency (of label claim) [2, 10] | Potency Pass/fail [2, 11] | Potency (of label claim) [2, 12] | Potency Pass/fail [2, 13] | Potency Pass/fail [2, 14] | Potency (of label claim) [2, 15] | Potency Pass/fail [2, 16] | Potency (of label claim) [2, 17] | Potency Pass/fail [2, 18] | Potency (of label claim) ([2]; formulation B8, time = 0) | Potency Pass/fail [2, 19] | other results
C[C@@H]1C[C@H]2[C@@H]3CCC4=CC(=O)C=C[C@]4(C)[C@@]3(F)[C@@H](O)C[C@]2(C)[C@@]1(O)C(=O)COP(=O)(O)O [Dexamethasone sodium phosphate, Dexamethasone 21-phosphate disodium salt] |  |  | H2O soluble |  |  |  |  |  |  |  |  |  |  |  |  |  |  |  |  |  | 
CN(C)CCOC(c1ccccc1)c1ccccc1 [Diphenhydramine HCl] |  |  |  | 100.2% | Pass (A difference in calculated quantity of less than 5% from the intial formulation (i.e. time=0) amount was considered a “pass”) | 100.8% | Pass (A difference in calculated quantity of less than 5% from the intial formulation (i.e. time=0) amount was considered a “pass”) | 101.7% | Pass (A difference in calculated quantity of less than 5% from the intial formulation (i.e. time=0) amount was considered a “pass”) | 101.85% | Pass (A difference in calculated quantity of less than 5% from the intial formulation (i.e. time=0) amount was considered a “pass”) | 100.1% | Pass (A difference in calculated quantity of less than 5% from the intial formulation (i.e. time=0) amount was considered a “pass”) | Pass (A difference in calculated quantity of less than 5% from the intial formulation (i.e. time=0) amount was considered a “pass”) | 102.4% | Pass (A difference in calculated quantity of less than 5% from the intial formulation (i.e. time=0) amount was considered a “pass”) | 103.0% | Pass (A difference in calculated quantity of less than 5% from the intial formulation (i.e. time=0) amount was considered a “pass”) | 100.6% | Pass (A difference in calculated quantity of less than 5% from the intial formulation (i.e. time=0) amount was considered a “pass”) | 
CCN(CC)CC(=O)Nc1c(C)cccc1C [Lidocaine HCl] |  |  |  | 98.1% | Pass (A difference in calculated quantity of less than 5% from the intial formulation (i.e. time=0) amount was considered a “pass”) | 99.7% | Pass (A difference in calculated quantity of less than 5% from the intial formulation (i.e. time=0) amount was considered a “pass”) | 102.15% | Pass (A difference in calculated quantity of less than 5% from the intial formulation (i.e. time=0) amount was considered a “pass”) | 101.8% | Pass (A difference in calculated quantity of less than 5% from the intial formulation (i.e. time=0) amount was considered a “pass”) | 102.9% | Pass (A difference in calculated quantity of less than 5% from the intial formulation (i.e. time=0) amount was considered a “pass”) | Pass (A difference in calculated quantity of less than 5% from the intial formulation (i.e. time=0) amount was considered a “pass”) | 101.4% | Pass (A difference in calculated quantity of less than 5% from the intial formulation (i.e. time=0) amount was considered a “pass”) | 101.4% | Pass (A difference in calculated quantity of less than 5% from the intial formulation (i.e. time=0) amount was considered a “pass”) | 100.4% | Pass (A difference in calculated quantity of less than 5% from the intial formulation (i.e. time=0) amount was considered a “pass”) | 
C[C@@H]1[C@H](O)[C@@H](C)/C=C/C=C/CC/C=C/C=C/C=C/C=C/C(O[C@H]2O[C@H](C)[C@@H](O)[C@H](N)[C@@H]2O)CC2O[C@](O)(CC(O)C(O)CCC(O)CC(O)CC(O)CC(=O)O[C@H]1C)CC(O)C2C(=O)O (stereo partly drawn) [Nystatin] |  |  | slightly soluble- | 98.4% | Fail | 106.8% | Pass (A difference in calculated quantity of less than 5% from the intial formulation (i.e. time=0) amount was considered a “pass”) | 88.8% | Fail | 106% | Pass (A difference in calculated quantity of less than 5% from the intial formulation (i.e. time=0) amount was considered a “pass”) | 92.4% | Fail | Pass (A difference in calculated quantity of less than 5% from the intial formulation (i.e. time=0) amount was considered a “pass”) | 101.7% | Pass (A difference in calculated quantity of less than 5% from the intial formulation (i.e. time=0) amount was considered a “pass”) | 109.6% | Pass (A difference in calculated quantity of less than 5% from the intial formulation (i.e. time=0) amount was considered a “pass”) | 108.5% | Pass (A difference in calculated quantity of less than 5% from the intial formulation (i.e. time=0) amount was considered a “pass”) | Solubility (Notes) [1]: 4 mg/ml in H2O; Potency (of label claim) ([2]; formulation B8, 4 months at room temperature): 105.3%

Second part, led by results:

Preservative assay [3, 4] | Preservative assay [3, 6] | Compound | Solubility (Notes) ([1]; in words) | Potency (of label claim) [2, 4] | Potency Pass/fail [2, 5] | Potency (of label claim) [2, 6] | Potency Pass/fail [2, 7] | Potency (of label claim) [2, 8] | Potency Pass/fail [2, 9] | Potency (of label claim) [2, 10] | Potency Pass/fail [2, 11] | Potency (of label claim) [2, 12] | Potency Pass/fail [2, 13] | Potency Pass/fail [2, 14] | Potency (of label claim) [2, 15] | Potency Pass/fail [2, 16] | Potency (of label claim) [2, 17] | Potency Pass/fail [2, 18] | Potency (of label claim) ([2]; formulation B8, time = 0) | Potency Pass/fail [2, 19] | other results
95% | 97.6% | COC(=O)c1ccc(O)cc1 [Methyl paraben] |  |  |  |  |  |  |  |  |  |  |  |  |  |  |  |  |  |  | Preservative assay [3, 8]: 95.7%; Preservative assay [3, 10]: 100.1%; Preservative assay [3, 12]: 97.1%; Preservative assay [3, 17]: Methyl P - 98.2%; Preservative assay ([3]; formulation B8, time = 0): paraben: 100.8%
99.1% | 99.3% | CCCOC(=O)c1ccc(O)cc1 [Propyl paraben] |  |  |  |  |  |  |  |  |  |  |  |  |  |  |  |  |  |  | Preservative assay [3, 8]: 99.4%; Preservative assay [3, 10]: 100.4%; Preservative assay [3, 12]: 99.2%; Preservative assay [3, 17]: Propul P - 99.1%; Preservative assay ([3]; formulation B8, time = 0): paraben: 99.1%
